This note sets out measurements from patent publication US20140141503A1, “CELL CULTURE SUBSTRATE HAVING UNIFORM SURFACE COATING” (Corning Incorporated, priority 2012, published 2014).

Molecules are shown by their SMILES.

The data set is described as follows: Compound extraction (loss) from PBS buffer by PDMS coating, UV-VIS at 260 nm. The data set is classed as physicochemical. Particulars: 200 μL of 200 μM Nefazodone-PBS, 24 hours, less than 0.8 mg of PDMS in 200 μL PBS (volume ratio PDMS to buffer less than 1/250). The method, then:
Nefazodone is a small hydrophobic compound that can be readily extracted from aqueous buffer by PDMS following a partition function rule, which means the loss of Nefazodone […] with the amount of PDMS present in a given volume of buffer. In order to determine the safe quantity of PDMS for use with 200 μL of PBS buffer, 200 μL of a 200 μM Nefazodone-PBS solution was incubated in wells (formed generally as described above in EXAMPLE 4) containing varying PDMS coating amounts from 0.005 mg to 4 mg per well for 24 hours. After 24 hours the Nefazodone that remained in the PBS buffer was measured by UV-VIS adsorption at 260 nm. The results shown in FIG. 11 indicate that the loss of Nefazodone is negligible in the presence of less than 0.8 mg of PDMS in 200 μL of PBS buffer (meaning volume ratio of PDMS to buffer is less than 1/250).

For the compound `CCc1nn(CCCN2CCN(c3cccc(Cl)c3)CC2)c(=O)n1CCOc1ccccc1` [Nefazodone], the “loss of Nefazodone from PBS buffer” value is listed as “negligible”.
